Where two headings read alike, the source gives them in different places.
Key:
E. coli = assay: MIC of imipenem, ertapenem and meropenem; assay type: cell-based, Escherichia coli; conditions: Escherichia coli
enterobacterial isolates = assay: MIC of imipenem, ertapenem and meropenem (groups of isolates, other species); assay type: cell-based, Enterobacteriaceae
E. cloacae = assay: MIC of imipenem, ertapenem and meropenem; assay type: cell-based, Enterobacter cloacae; conditions: Enterobacter cloacae, E. cloacae 501; OXA-48 + TEM-1 + CTX-M-15; read-out: MIC

In the case of `C[C@@H](O)[C@H]1C(=O)N2C(C(=O)O)=C(S[C@@H]3CN[C@H](C(=O)Nc4cccc(C(=O)O)c4)C3)[C@H](C)[C@H]12` [ETP, ertapenem], the MIC (E. coli; E. coli 1020, CTX-M-1 + TEM-1, non-carbapenemase producer) is reported as 0.023 µg/mL, the MIC (E. coli; E. coli 1023, CTX-M-2 + TEM-1, non-carbapenemase producer, read-out: MIC) is reported as 0.016 µg/mL and the MIC (E. coli; E. coli 1034, TEM-1 + SHV-38, non-carbapenemase producer, read-out: MIC) is reported as 0.006 µg/mL. For the same compound, the MIC (E. coli; E. coli 1048, TEM-1 + SHV-2a, non-carbapenemase producer, read-out: MIC) was 0.012 µg/mL, the MIC (E. coli; E. coli 1082 (TEM-1)) was 0.019 µg/mL and the MIC (E. coli; E. coli 1082, TEM-1, non-carbapenemase producer) was 0.019 µg/mL. The MIC (E. coli; E. coli 1092, OXA-1, non-carbapenemase producer, read-out: MIC) was 0.19 µg/mL, the MIC (E. coli; E. coli 6252, (wild type), non-carbapenemase producer) was 0.004 µg/mL and the MIC (E. coli; E. coli 10121, CTX-M-2, non-carbapenemase producer, read-out: MIC) was 0.016 µg/mL. For the same compound, the MIC (E. coli; E. coli 1108013, IMP-1 + TEM-1, read-out: MIC) was 4 µg/mL, the MIC (E. coli; E. coli AUS (NDM-1 + CTX-M-15 + TEM-1), read-out: MIC) was 32 µg/mL and the MIC (E. coli; E. coli AUS, NDM-1 + TEM-1 + CTX-M-15, read-out: MIC) was 32 µg/mL. For the same compound, the MIC (E. coli; E. coli BER (OXA-48 + CTX-M-15), read-out: MIC) was 1.5 µg/mL, the MIC (E. coli; E. coli BER, OXA-48 + TEM-1 + CTX-M-15, read-out: MIC) was 1.5 µg/mL and the MIC (E. coli; E. coli BOK (OXA-48 + CTX-M-15), read-out: MIC) was 0.38 µg/mL. The MIC (E. coli; E. coli BOK, OXA-48 + CTX-M-15, read-out: MIC) was 0.38 µg/mL, the MIC (E. coli; E. coli BON (OXA-48 + CTX-M-24 + TEM-1), read-out: MIC) was 0.5 µg/mL and the MIC (E. coli; E. coli BON, OXA-48 + TEM-1 + CTX-M-24, read-out: MIC) was 0.5 µg/mL. It also gave an MIC (E. coli; E. coli BOU (OXA-48 + CTX-M-15), read-out: MIC) of 0.75 µg/mL, an MIC (E. coli; E. coli BOU, OXA-48 + CTX-M-15, read-out: MIC) of 0.75 µg/mL and an MIC (E. coli; E. coli COL (KPC-2), read-out: MIC) of 4 µg/mL. For the same compound, the MIC (E. coli; E. coli COL, KPC-2 + TEM-1 + CTX-M-9, read-out: MIC) was 4 µg/mL, the MIC (E. coli; E. coli DIH (VIM-19), read-out: MIC) was 16 µg/mL and the MIC (E. coli; E. coli DIH, VIM-19, read-out: MIC) was 16 µg/mL. The MIC (E. coli; E. coli DIN, KPC-2 + TEM-1 + OXA-1, read-out: MIC) was greater than 32 µg/mL, the MIC (E. coli; E. coli E14 (CTX-M-14), read-out: MIC) was 0.12 µg/mL and the MIC (E. coli; E. coli E14, CTX-M-14, non-carbapenemase producer, read-out: MIC) was 0.012 µg/mL. It also gave an MIC (E. coli; E. coli ECA, ACC-1, non-carbapenemase producer, read-out: MIC) of 0.012 µg/mL, an MIC (E. coli; E. coli EVB, VEB-1, non-carbapenemase producer, read-out: MIC) of 0.012 µg/mL and an MIC (E. coli; E. coli FOR, CTX-M-15, non-carbapenemase producer, read-out: MIC) of 0.012 µg/mL. The MIC (E. coli; E. coli GEN (NDM-1 + OXA-1 + CMY-30 + TEM-1), read-out: MIC) was greater than 32 µg/mL, the MIC (E. coli; E. coli GEN, NDM-1 + TEM-1 + CMY-30 + OXA-1, read-out: MIC) was greater than 32 µg/mL and the MIC (E. coli; E. coli GOG (OXA-48 + CTX-M-24), read-out: MIC) was 1.5 µg/mL. For the same compound, the MIC (E. coli; E. coli MET, Chromosome-encoded extended-spectrum cephalosporinase, non-carbapenemase producer, read-out: MIC) was 0.012 µg/mL, the MIC (E. coli; E. coli NAA (OXA-48 + CTX-M-24), read-out: MIC) was 2 µg/mL and the MIC (E. coli; E. coli OM3, OXA-48 + TEM-1 + CTX-M-15, read-out: MIC) was 1 µg/mL. For the same compound, the MIC (E. coli; E. coli OM20, NDM-1 + TEM-1 + CTX-M-15, read-out: MIC) was greater than 32 µg/mL, the MIC (E. coli; E. coli OM22, OXA-48 + TEM-1 + CTX-M-15, read-out: MIC) was 1 µg/mL and the MIC (E. coli; E. coli PSP (KPC-2), read-out: MIC) was 0.5 µg/mL. The MIC (E. coli; E. coli PSP, KPC-2 + TEM-1 + OXA-1, read-out: MIC) was 0.5 µg/mL, the MIC (E. coli; E. coli RIC (NDM-1 + OXA-1 + OXA-10 + CMY-16), read-out: MIC) was 3 µg/mL and the MIC (E. coli; E. coli RIC, NDM-1 + CMY-16 + OXA-1 + OXA-10, read-out: MIC) was 3 µg/mL. For the same compound, the MIC (E. coli; E. coli ROB (OXA-48), read-out: MIC) was 0.75 µg/mL, the MIC (E. coli; E. coli ROB, OXA-48, read-out: MIC) was 0.75 µg/mL and the MIC (E. coli; E. coli SYD, CMY-2, non-carbapenemase producer, read-out: MIC) was 0.012 µg/mL. It also gave an MIC (E. coli; E. coli TWA, IMP-8 + SHV-12, read-out: MIC) of 8 µg/mL, an MIC (E. coli; E. coli ZAN, OXA-48 + TEM-1 + CTX-M-14, read-out: MIC) of 8 µg/mL and an MIC (E. coli; strain E. coli 1008, TEM-1 + CTX-M-1, non-carbapenemase producer, read-out: MIC) of 0.016 µg/mL. The MIC (E. coli; strain E. coli 1034, TEM-1 + SHV-38, non-carbapenemase producer, read-out: MIC) was 0.006 µg/mL, the MIC (E. coli; strain E. coli 1048, TEM-1 + SHV-2a, non-carbapenemase producer, read-out: MIC) was 0.012 µg/mL and the MIC (E. coli; strain E. coli 10121, CTX-M-2, non-carbapenemase producer, read-out: MIC) was 0.016 µg/mL. The MIC (E. coli; strain E. coli AME, OXA-48 + CTX-M-24, read-out: MIC) was 0.5 µg/mL, the MIC (E. coli; strain E. coli BON, OXA-48 + TEM-1 + CTX-M-24, read-out: MIC) was 0.5 µg/mL and the MIC (enterobacterial isolates; Example 3, 19 isolates (1 Citrobacter freundii, 2 E. coli, 4 E. cloacae, 12 K. pneumoniae) with porin defect, read-out: MIC values of ertapenem of ertapenem non-susceptible isolates) was greater than 0.25 µg/mL. For the same compound, the MIC (enterobacterial isolates; S. marcescens 0911033, IMP-1) was greater than 32 µg/mL, the MIC (enterobacterial isolates; S. marcescens 1008091, VIM-1+ CTX-M-15) was greater than 32 µg/mL and the MIC (enterobacterial isolates; S. marcescens C7052, KPC-2 + TEM-1 + SHV-12) was greater than 32 µg/mL. It also gave an MIC (enterobacterial isolates; Serratia marcescens, S. marcescens D6403, KPC-2 + TEM-1, read-out: MIC) greater than 32 µg/mL and an MIC (E. cloacae) of 16 µg/mL.

From patent US9328374B2, “Selective culture medium and method for detecting carbapenem-resistant bacteria in a test sample” (Institut National de la Sante et de la Recherche Medicale …, priority 2011, dated 2016)
